Source: the supplement of paper PMC11061612

Key:
Assay in all cases: Bliss excess, mean over the matrix (fraction); higher = more synergy
8-MG-BA (Glioblastoma) = tested on: 8-MG-BA (Glioblastoma)
In short: (§1)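 Cell lines in DMEM/F12 or RPMI with 10% FBS were plated in 1536-well plates, held 24 hours at 37°C, 5% CO2, then given two-drug dose matrices for 72 hours (DMSO typically 0.2%). Viability was read by CellTiter-Glo 2.0 luminescence and scaled as inhibition from 0 (vehicle wells) to 1 (blank wells). Combination Emax is the second-highest inhibition in the matrix; Bliss excess is observed combination effect minus expected EA + EB − EA·EB, EA and EB being single-agent effects.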

A498 (Kidney Carcinoma) = tested on: A498 (Kidney Carcinoma)
In short: as §1

ARH-77 (Non-Cancerous) = tested on: ARH-77 (Non-Cancerous)
In short: as §1

[1] = tested on: BICR22 (Oral Cavity Carcinoma)
In short: as §1

CAS-1 (Glioblastoma) = tested on: CAS-1 (Glioblastoma)
In short: as §1

[2] = tested on: CCK-81 (Colorectal Carcinoma)
In short: as §1

[3] = tested on: COLO-824 (Breast Carcinoma)
In short: as §1

GI-ME-N (Neuroblastoma) = tested on: GI-ME-N (Neuroblastoma)
In short: as §1

[4] = tested on: HCC1954 (Breast Carcinoma)
In short: as §1

[5] = tested on: KARPAS-422 (B-Cell Non-Hodgkin's Lymphoma)
In short: as §1

LN-405 (Glioblastoma) = tested on: LN-405 (Glioblastoma)
In short: as §1

[6] = tested on: NCI-H1666 (Lung Adenocarcinoma)
In short: as §1

NCI-H2591 (Mesothelioma) = tested on: NCI-H2591 (Mesothelioma)
In short: as §1

NY (Osteosarcoma) = tested on: NY (Osteosarcoma)
In short: as §1

[7] = tested on: SISO (Cervical Carcinoma)
In short: as §1

[8] = tested on: SK-MES-1 (Squamous Cell Lung Carcinoma)
In short: as §1

[9] = tested on: TT (Thyroid Gland Carcinoma)
In short: as §1

[10] = tested on: TT2609-C02 (Thyroid Gland Carcinoma)
In short: as §1

U-2-OS (Osteosarcoma) = tested on: U-2-OS (Osteosarcoma)
In short: as §1

[11] = tested on: VCaP (Prostate Carcinoma)
In short: as §1

SMILES	Bliss excess (8-MG-BA (Glioblastoma))	Bliss excess (A498 (Kidney Carcinoma))	Bliss excess (ARH-77 (Non-Cancerous))	Bliss excess [1]	Bliss excess (CAS-1 (Glioblastoma))	Bliss excess [2]	Bliss excess [3]	Bliss excess (GI-ME-N (Neuroblastoma))	Bliss excess [4]	Bliss excess [5]	Bliss excess (LN-405 (Glioblastoma))	Bliss excess [6]	Bliss excess (NCI-H2591 (Mesothelioma))	Bliss excess (NY (Osteosarcoma))	Bliss excess [7]	Bliss excess [8]	Bliss excess [9]	Bliss excess [10]	Bliss excess (U-2-OS (Osteosarcoma))	Bliss excess [11]
CC(=O)c1c(C)c2cnc(Nc3ccc(N4CCNCC4)cn3)nc2n(C2CCCC2)c1=O [Palbociclib] + Cc1c2c(nn1C)CSCc1cc(n(C)n1)CSc1cc(c3ccccc3c1)OCCCc1c(C(=O)O)n(C)c3c-2c(Cl)ccc13 [AZD5991] (first compound max 10 µM, 7x7, partner max 1 µM)	-0.0424	-0.0779	-0.0248	-0.0568	0.0001	0.0565	-0.0768	-0.0873	-0.09	-0.0221	-0.0445	-0.0198	-0.0328	-0.0358	-0.0282	-0.0463	0.0684	-0.0822	-0.0224	-0.0284
C[C@@H]1COCCN1c1cc(C2([S@](C)(=N)=O)CC2)nc(-c2ccnc3[nH]ccc23)n1 [AZD6738] + O=C(c1cc(Cc2n[nH]c(=O)c3ccccc23)ccc1F)N1CCN(C(=O)C2CC2)CC1 [Olaparib] (first compound max 10 µM, 7x7, partner max 10 µM)	0.0521	-0.0403	-0.0297	0.003	0.0743	-0.0049	-0.0314	-0.0252	0.0028	-0.0539	0.0005	0.0073	0.0123	-0.0521	0.0221	-0.0324	-0.0219	0.0176	0.0257	-0.0107
COc1cccc(OCCCN)c1-c1cc(Nc2cnc(C#N)cn2)n[nH]1 [Prexasertib] + O=C(c1cc(Cc2n[nH]c(=O)c3ccccc23)ccc1F)N1CCN(C(=O)C2CC2)CC1 [Olaparib] (first compound max 1 µM, 7x7, partner max 10 µM)	0.0262	-0.0622	-0.0485	-0.0685	-0.0979	-0.12	-0.0481	-0.0649	-0.0566	-0.044	0.0837	-0.0096	-0.0683	-0.0128	0.0003	-0.0174	-0.141	-0.0062	-0.0478	-0.041
CN(C)CCCOc1ccc(-c2ccc3ncc4c(c3c2)n(C2CCOCC2)c(=O)n4C)cn1 [AZD0156] + O=C(c1cc(Cc2n[nH]c(=O)c3ccccc23)ccc1F)N1CCN(C(=O)C2CC2)CC1 [Olaparib] (first compound max 3 µM, partner max 3 µM)	0.079	0.047	0.0648	-0.0003	0.0481	-0.0131	0.0729	-0.0116	0.0066	0.0171	-0.0375	0.0049	-0.0248	-0.0279	0.0631	-0.0199	-0.0297	0.0251	0.0203	0.0063
CN(C)CCCOc1ccc(-c2ccc3ncc4c(c3c2)n(C2CCOCC2)c(=O)n4C)cn1 [AZD0156] + C=CCn1c(=O)c2cnc(Nc3ccc(N4CCN(C)CC4)cc3)nc2n1-c1cccc(C(C)(C)O)n1 [AZD1775] (first compound max 1 µM, partner max 1 µM)	-0.0587	-0.0532	-0.0207	-0.0146	-0.0512	-0.0039	-0.0024	-0.0452	-0.034	-0.0476	-0.0478	-0.0371	-0.0306	-0.0212	-0.0513	-0.0176	-0.0951	-0.0119	0.0036	-0.0751
CCN(CCO)CCCOc1ccc2c(Nc3cc(CC(=O)Nc4cccc(F)c4)[nH]n3)ncnc2c1 [AZD2811] + C=CCn1c(=O)c2cnc(Nc3ccc(N4CCN(C)CC4)cc3)nc2n1-c1cccc(C(C)(C)O)n1 [AZD1775] (first compound max 1 µM, partner max 1 µM)	0.0299	-0.0494	0.024	-0.0093	0.032	-0.037	-0.0967	-0.0112	-0.0269	-0.0349	-0.0312	-0.0282	0.0107	-0.0363	0.0157	-0.0112	-0.0155	-0.0295	-0.0039	-0.0369
CC1(C)CCC(CN2CCN(c3ccc(C(=O)NS(=O)(=O)c4ccc(NCC5CCOCC5)c([N+](=O)[O-])c4)c(Oc4cnc5[nH]ccc5c4)c3)CC2)=C(c2ccc(Cl)cc2)C1 [Venetoclax] + C[C@@H](Nc1cc(F)cc(F)c1)c1cc(C(=O)N(C)C)cc2c(=O)cc(N3CCOCC3)oc12 [AZD8186] (first compound max 1 µM, 7x7, partner max 3 µM)	0.0025	-0.043	0.0649	-0.0378	-0.04	-0.0287	0.139	-0.06	-0.0245	0.0808	-0.0013	-0.0705	-0.0378	0.0226	-0.0268	0.0051	-0.0467	-0.0251	-0.0269	-0.0242
COc1nnc2ccc(N3CCC(c4ccc(OCCN5CCN(C)C(=O)[C@H]5C)cc4)CC3)nn12 [AZD5153] + CCN(CCO)CCCOc1ccc2c(Nc3cc(CC(=O)Nc4cccc(F)c4)[nH]n3)ncnc2c1 [AZD2811] (first compound max 1 µM, 7x7, partner max 1 µM)	0.0121	-0.0453	-0.0471	-0.118	-0.0797	-0.0361	-0.0422	0.0022	-0.011	-0.0472	-0.0761	-0.0376	-0.0181	-0.0314	0.0112	-0.0546	-0.0755	-0.076	-0.0044	-0.0345
C[C@@H](c1ccc2nccn2c1)n1nnc2ncc(-c3cnn(C)c3)nc21 [Savolitinib] + Cc1c2c(nn1C)CSCc1cc(n(C)n1)CSc1cc(c3ccccc3c1)OCCCc1c(C(=O)O)n(C)c3c-2c(Cl)ccc13 [AZD5991] (first compound max 1 µM, 7x7, partner max 1 µM)	-0.0303	-0.032	-0.0181	-0.0321	-0.0584	-0.0402	-0.0212	-0.0778	-0.0525	-0.0462	0.0023	-0.0577	-0.0549	-0.0288	-0.0596	-0.0361	-0.0102	-0.0947	-0.0271	-0.0422
Cn1cnc2c(F)c(Nc3ccc(Br)cc3Cl)c(C(=O)NOCCO)cc21 [Selumetinib] + CC(C)n1c(=O)n(C)c2cnc3cc(F)c(-c4ccc(OCCCN5CCCCC5)nc4)cc3c21 [AZD1390] (first compound max 10 µM, 7x7, partner max 0.3 µM)	-0.018	-0.0489	-0.007	-0.027	-0.053	0.0157	-0.018	-0.0399	-0.0277	-0.032	-0.0518	0.0058	-0.0585	-0.0149	-0.0395	-0.0487	-0.0364	-0.0387	-0.0464	-0.0387
Cn1cnc2c(F)c(Nc3ccc(Br)cc3Cl)c(C(=O)NOCCO)cc21 [Selumetinib] + CCN(CCO)CCCOc1ccc2c(Nc3cc(CC(=O)Nc4cccc(F)c4)[nH]n3)ncnc2c1 [AZD2811] (first compound max 10 µM, 7x7, partner max 1 µM)	-0.0181	0.002	0.0498	-0.0731	-0.0349	0.0101	-0.0218	-0.0614	-0.0098	0.0206	-0.0367	-0.0506	-0.0459	-0.0102	0.015	-0.048	-0.0472	0.0055	-0.0111	-0.0336
COc1cccc(OCCCN)c1-c1cc(Nc2cnc(C#N)cn2)n[nH]1 [Prexasertib] + C[C@@H]1COCCN1C2=NC(=NC(=C2)C3(CC3)[S@](=N)(=O)C)C4=C5C=CNC5=NC=C4 [AZD6738] (first compound max 1 µM, 7x7, partner max 10 µM)	-0.0239	-0.0514	0.0006	-0.0153	-0.0095	-0.0277	-0.0675	0.0681	0.0079	-0.0734	-0.136	0.0338	0.0187	-0.0031	0.0309	-0.0205	0.0244	-0.0002	-0.0426	-0.0267
Cc1c2c(nn1C)CSCc1cc(n(C)n1)CSc1cc(c3ccccc3c1)OCCCc1c(C(=O)O)n(C)c3c-2c(Cl)ccc13 [AZD5991] + Cc1cc2ncnn2cc1Nc1ncc2c(n1)n(C1CCOCC1)c(=O)n2C [AZD7648] (first compound max 1 µM, 7x7, partner max 10 µM)	0.0218	-0.0249	-0.024	0.0158	-0.0723	-0.0103	-0.0187	-0.0863	-0.0095	-0.0008	-0.0439	-0.0666	-0.0106	-0.0319	-0.0221	-0.0471	-0.0112	-0.038	-0.0318	-0.0067
COc1cc2ncnc(Nc3ccc(F)c(Cl)c3)c2cc1OCCCN1CCOCC1 [Gefitinib] + CC(C)n1c(=O)n(C)c2cnc3cc(F)c(-c4ccc(OCCCN5CCCCC5)nc4)cc3c21 [AZD1390] (first compound max 10 µM, 7x7, partner max 0.3 µM)	-0.0604	-0.11	-0.0785	-0.013	-0.0603	-0.072	-0.0795	-0.0827	-0.0366	-0.0363	-0.076	-0.0064	-0.0801	-0.0355	-0.0627	-0.0755	-0.0526	-0.0716	-0.0496	-0.0429
C=CCn1c(=O)c2cnc(Nc3ccc(N4CCN(C)CC4)cc3)nc2n1-c1cccc(C(C)(C)O)n1 [AZD1775] + C1CN(CCC1(C(=O)N[C@@H](CCO)C2=CC=C(C=C2)Cl)N)C3=NC=NC4=C3C=CN4 [Capivasertib] (first compound max 3 µM, partner max 3 µM)	0.0277	-0.0315	0.018	0.0369	0.0104	-0.0214	-0.0289	-0.0726	0.002	-0.0691	-0.0436	-0.0773	-0.035	-0.0746	-0.102	0.04	-0.0079	0.0087	-0.0453	-0.061
